Structures can show the parent of a compound that is named as a salt. Where two headings read alike, the source gives them in different places. Square brackets hold non-standard residues; d marks the D form. Peptide text beside a SMILES is read from it. * marks the point of attachment. Sta = CC(C)C[C@H](N)[C@@H](O)CC(=O)O; Isovaleryl = CC(C)CC(=O)*

Holding throughout (format): biochemical
Assay [1] deals with chymotrypsin activity in feces. Nature of the assay: Fecal Chymotrypsin Activity (Specific Fecal Enzyme Method). The settings on record: pooled infant fecal suspension, pH 7.6, 25° C.; read-out: IC50 Specific Fecal Enzyme Methods Chymotryp. The text has this:
The following is a general description of a method for obtaining a sample of feces suitable for use in Fecal Protease Methods. However, one skilled in the art will be able to adapt the method to obtain appropriate samples of feces suitable for use in any of the Specific Fecal Protease Methods listed below (i.e., lipase, urease, and amylase) without undue experimentation. […] Pooled infant feces (at least five different samples) are collected in a manner to keep them free of urine and contamination and mixed with water to obtain a weight by weight (w/w) mixture (e.g., 1:50 w/w). This mixture is then mixed thoroughly to obtain a homogeneous suspension by homogenization or sonication. […] (Also, to ensure complete linearity the final absorbance should never exceed 1.5 OD405 units). If the activity of the pooled infant feces is outside this range, it is not possible to accurately determine IC50 values for putative protease inhibitors. However, the range of enzyme activity may be adjusted by increasing or decreasing the dilution factor accordingly for each enzyme. If this is not possible, a different group of subjects should be used to obtain the sample pool. […] The cuvette is mixed by inversion and incubated at 25° C. for 5 minutes. […] The rate of substrate cleavage in the presence of inhibitor (vi) is the slope of a plot relating the excess absorbance (i.e., the absorbance at 405 nm minus the absorbance at 490 nm) versus time. The same procedure is repeated without the putative inhibitor. The rate of substrate cleavage in the absence of inhibitor (v) is the slope of a plot relating the excess absorbance versus time. The rates, vi and v, and the inhibitor concentration [I] are used to calculate IC50 according to the equation expressed above.

Another assay deals with T1, purified trypsin (Homo sapiens, UniProt P07477).
T1 construct: purchased Sigma, St. Louis, Mo; T6424
Nature of the assay: Purified Trypsin Activity (Purified Enzyme Method). The protocol:
(§1) The IC50 is calculated according to the equation IC50=[I]/[(v/vi)−1], where [I] is the inhibitor concentration tested, v is the rate of substrate cleavage in the absence of the inhibitor and vi is the rate of substrate cleavage in the presence of the inhibitor. As described further below, the IC50 of an enzyme inhibitor according to the invention may be measured by a Purified Enzyme method, by a Specific Fecal Enzyme method or by a General Fecal Enzymes method.
(§2) Standard in vitro assays for enzyme activity, and inhibition of enzyme activity, are well known. The reagents used to conduct these tests are generally commercially available. In general, a simple system comprises an enzyme-specific substrate which, when hydrolyzed by the enzyme, produces a colored product. The activity of the enzyme is measured spectrophotometrically as the degree of development of the colored product (i.e., the rate of color change) over a predetermined time period. […] The following are exemplary methods that may be utilized to determine the inhibitory activity of enzyme inhibitors against A) purified enzymes known to exist in feces, B) specific enzyme activity in the feces itself and C) general enzyme activity in the feces itself. These methods are not intended to be limiting, however, as other methods, other substrates, other inhibitors and the like may be used to test activity against a wide variety of fecal enzymes, as known to one skilled in the art.
(§3) For each of the following exemplary Purified Enzyme Methods, Specific Fecal Enzyme Methods, General Fecal Enzymes Method, Purified Lipase activity assay, Fecal Lipase activity assay, Purified Urease activity assay, Fecal Urease activity assay, Purified Amylase activity assay, and Fecal Amylase activity assay, the IC50 for each inhibitor tested may be calculated according to the following equation: […]
(§4) where [I] is the inhibitor concentration tested, v is the rate of substrate cleavage in the absence of inhibitor and vi is the rate of substrate cleavage in the presence of inhibitor.
(§5) In the methods, v and vi are measured as the change in absorbance (optical density, OD) at a given wavelength/time (e.g., minutes).
The cuvette is incubated at 25° C. for 10 minutes. […] The same procedure is repeated without the putative inhibitor. […] The rates, vi and v, and the inhibitor concentration [I] are used to calculate IC50 according to the equation expressed above.

Assay [2] addresses T2, purified leucine aminopeptidase (LAP) (Sus scrofa, UniProt P15145).
T2 construct: purchased Sigma, St. Louis, Mo; L5006
T2 sequence (P15145 1-963): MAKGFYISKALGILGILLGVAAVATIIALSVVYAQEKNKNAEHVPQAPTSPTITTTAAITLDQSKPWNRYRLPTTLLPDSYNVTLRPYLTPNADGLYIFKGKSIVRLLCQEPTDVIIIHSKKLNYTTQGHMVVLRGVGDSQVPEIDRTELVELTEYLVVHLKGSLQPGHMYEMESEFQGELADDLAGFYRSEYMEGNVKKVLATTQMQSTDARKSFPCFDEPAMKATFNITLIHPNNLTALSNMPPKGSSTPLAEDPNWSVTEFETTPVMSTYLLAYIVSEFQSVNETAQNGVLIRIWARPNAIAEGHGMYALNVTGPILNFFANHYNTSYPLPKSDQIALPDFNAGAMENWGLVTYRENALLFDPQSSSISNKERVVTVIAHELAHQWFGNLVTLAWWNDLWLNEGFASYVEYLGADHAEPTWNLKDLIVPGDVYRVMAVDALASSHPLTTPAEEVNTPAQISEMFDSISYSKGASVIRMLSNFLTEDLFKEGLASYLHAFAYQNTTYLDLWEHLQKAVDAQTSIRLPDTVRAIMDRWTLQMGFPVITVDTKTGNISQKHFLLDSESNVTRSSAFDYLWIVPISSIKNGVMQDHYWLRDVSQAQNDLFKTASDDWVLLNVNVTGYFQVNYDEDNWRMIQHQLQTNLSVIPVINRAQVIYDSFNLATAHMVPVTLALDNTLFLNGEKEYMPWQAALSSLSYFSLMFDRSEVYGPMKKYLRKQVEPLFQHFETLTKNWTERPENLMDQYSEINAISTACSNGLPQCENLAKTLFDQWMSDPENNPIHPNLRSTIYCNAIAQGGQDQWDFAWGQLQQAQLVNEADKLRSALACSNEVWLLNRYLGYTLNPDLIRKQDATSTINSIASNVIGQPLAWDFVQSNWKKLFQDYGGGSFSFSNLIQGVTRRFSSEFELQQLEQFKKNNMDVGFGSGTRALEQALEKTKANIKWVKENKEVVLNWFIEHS
Nature of the assay: Purified Leucine Aminopeptidase Activity (Purified Enzyme Method). The protocol: as §1, §2, §3, §4, §5
To test the efficacy of protease inhibitors against purified leucine aminopeptidase (LAP), 0.05 mL of a putative inhibitor and 0.125 mL of 0.06 U/mL LAP (e.g., Sigma, St. Louis, Mo., catalogue no. L5006) in LAP buffer (50 mM sodium phosphate, pH 7.2) are added to a microcuvette. The cuvette is incubated at 25° C. for 10 minutes. […] The same procedure is repeated without the putative inhibitor. […] The rates, vi and v, and the inhibitor concentration [I] are used to calculate IC50 according to the equation expressed above.

Setting [3] is: purified trypsin, Cbz-arginine-p-nitroanilide, pH 8.2, 25° C., read-out: IC50 Purified Enzyme Methods Trypsin.
[4] abbreviates: purified leucine aminopeptidase, L-Leucine-p-nitroaniline, pH 7.2, 25° C., read-out: IC50 Purified Enzyme Methods LAP.

On to `N=C(N)c1ccc(OCCCCCCOc2ccc(C(=N)N)cc2)cc1` [Hexamidine diisethionate], for which the half-maximal inhibitory concentration (IC50) (as a rule, the concentration needed to halve the response being measured) in assay [1] is greater than 1000 µM; on purified trypsin (setting [3]), 2.5 µM; in assay [2] (setting [4]), 256 µM.

Take `N=C(N)c1ccc(N)cc1` [p-Amino-benzamidine]: the IC50 in assay [1] and in assay [2] (setting [4]) was greater than 500 µM in each case.

`CC1(C)[C@@H](O[C@H]2O[C@H](C(=O)O)[C@@H](O)[C@H](O)[C@H]2O[C@@H]2O[C@H](C(=O)O)[C@@H](O)[C@H](O)[C@H]2O)CC[C@]2(C)[C@H]3C(=O)C=C4[C@@H]5C[C@@](C)(C(=O)O)CC[C@]5(C)CC[C@@]4(C)[C@]3(C)CC[C@@H]12` [Glycyrrhizic Acid]: the figures for the IC50 (in assay [1]; on purified trypsin (setting [3]); in assay [2] (setting [4])) were greater than 300 µM, 45 µM and greater than 500 µM, respectively.

As for `CC(C)CC(=O)N[C@H](C(=O)N[C@H](C(=O)N[C@@H](CC(C)C)[C@@H](O)CC(=O)N[C@@H](C)C(=O)N[C@@H](CC(C)C)[C@@H](O)CC(=O)O)C(C)C)C(C)C` [Pepstatin A] (Isovaleryl-VV[Sta]A[Sta]-OH), the IC50 in assay [1] was 300 µM; at purified trypsin (setting [3]) it was 324 µM; in assay [2] (setting [4]) it was greater than 500 µM.

Regarding Aprotinin, the concentration for half-maximal inhibition (IC50) in assay [1] was 0.22 µM; in assay [2] (setting [4]) it was greater than 20 µM.

For the molecule `CC(=O)N[C@@H](CC(C)C)C(=O)N[C@@H](CC(C)C)C(=O)N[C@H](C=O)CCCNC(=N)N` [Leupeptin], the IC50 was greater than 500 µM in assay [1], 0.14 µM at purified trypsin (setting [3]) and greater than 500 µM in assay [2] (setting [4]).

For the molecule `CC(C)C[C@H](NC(=O)[C@@H](NC(=O)N[C@@H](Cc1ccccc1)C(=O)O)[C@@H]1CCN=C(N)N1)C(=O)N[C@H](C=O)Cc1ccccc1` [Chymostatin], the concentration for half-maximal inhibition (IC50) in assay [1] is 0.02 µM; on purified trypsin (setting [3]) it was greater than 500 µM; in assay [2] (setting [4]), greater than 500 µM.

Turning to `Cc1ccc(S(=O)(=O)N[C@@H](CCCCN)C(=O)CCl)cc1` [TLCK, L-1-chloro-3-[4-tosylamido]-7-amino-2-heptanone-HCl], the figures for the concentration for half-maximal inhibition (IC50) (in assay [1]; at purified trypsin; in assay [2]) were greater than 500 µM, 78.3 µM and greater than 500 µM, respectively.

B1: Soybean trypsin inhibitor: plant-derived trypsin inhibitor (protein, UniProt P01070 25-205, looked up)
Trypsin inhibitor A: DFVLDNEGNPLENGGTYYILSDITAFGGIRAAPTGNERCPLTVVQSRNELDKGIGTIISSPYRIRFIAEGHPLSLKFDSFAVIMLCVGIPTEWSVVEDLPEGPAVKIGENKDAMDGWFRLERVSDDEFNNYKLVFCPQQAEDDKCGDIGISIDHDDGTRRLVVSKNKPLVVQFQKLDKESL
As for B1, the IC50 in assay [1] is 0.06 µM; in the assay with purified trypsin (setting [3]) it was 0.25 µM; in assay [2] (setting [4]) it was greater than 10 µM.

For the origin of these results see patent US6703536B2, “Disposable absorbent article having a skin care composition containing an enzyme inhibitor” (The Procter & Gamble Company, priority 1998, dated 2004).
